# According to US20230106583A1, “HETEROARYL COMPOUNDS” (Vivace Therapeutics, Inc., priority 2019, published 2023):
# pIC50: −log10 of the molar value.
# System: HEK293T cells stably transfected with 8XTBD luciferase reporter and pRLTK
# Experiment: YAP Reporter Assay (8XTBD-driven firefly luciferase)
# Type: cell-based
# Conditions: Homo sapiens, HEK-293T; HEK293T 8XTBD luciferase reporter; 24-hr incubation with compounds; top concentration 3 μM, 10 points
# Protocol: HEK293T cells stably transfected with 8XTBD luciferase reporter and pRLTK in 384-well plates were treated with the test compounds, starting from 3 μM (final concentration in assay plate), 1:3 dilution, and 10 points in quadruplicates. Post 24-hr incubation with compounds at 37° C. and 5% CO2, cells were lysed and 8XTBD-driven firefly luciferase and control TK-driven renilla luciferase activities were measured using Promega Dual-Luciferase Reporter Assay System.
# Reagents: The reagents used for this study are: DMEM: Invitrogen #11960077, Dual-Glo Luciferase Assay System: Promega-E2980, Puromycin Dihydrochloride: Invitrogen-A1113803, 384-well plate: PerkinElmer-6007480, L-GLUTAMINE: Invitrogen-25030164, Hygromycin B: Invitrogen-10687010, and Penicillin-Streptomycin: Merk-TMS-AB2-C
# Media: The media used for this assay were: Culture Medium: DMEM+1 ug/mL puromycin+200 ug/mL hygromycin (with 10% FBS+1 mM L-glutamine); and Assay Medium: DMEM (with 10% FBS+1 mM L-glutamine+1×P/S).
# Cell Plating: The appropriate media was warmed at 37° C. by water bath: Culture Medium, Assay Medium, 1*D-PBS, 0.05% trypsin-EDTA. The cells were trypsinized after removing all media, then washed with 1*sterile D-PBS and then with 2 ml 0.05% trypsin-EDTA. The cells were then incubated at RT for one minute. Then 10 ml/75 cm2 flask Assay Medium was added to each flask. Using a 10 ml pipette, the cells were then gently resuspended in the media, until the clumps completely disappeared. The cells were then transferred into 50 ml centrifuge tubes and were centrifuged at 800 rpm for 5 mins. The medium was removed and the cells were resuspended with Assay Medium. An aliquot of cells was used to count the cell density (cells/ml). The cell suspension was then diluted with Assay Medium to a concentration of 6×10^4 cells/ml. 50 ul cells suspension was then plated to 384-well plate (PerkinElmer-6007480), 3×10^3 cells/well and the cells were incubated in an incubator at 37° C., 5% CO2.
# Compound Treatment: In the afternoon (incubation of the plate with 3-4 hrs), the test compounds were added by Echo, starting from 3 uM (final concentration in the assay plate), 1:3 dilution, 10 points, quadruplicates. The plate was placed at 37° C., 5% CO2 incubator for 24 hrs.
# Detection: The Dual-Glo Luciferase Reagent was prepared by transferring the contents of one bottle of Dual-Glo Luciferase Buffer to one bottle of Dual-Glo Luciferase Substrate to create the Dual-Glo Luciferase Reagent. Mixing was performed by inversion until the substrate was thoroughly dissolved. After mixing, the reagent was aliquoted into 15 ml tubes. In the afternoon (24 hrs post compound treatment), the DMEM+medium in the 384 well plates were aspirated by Microplate Washer.
# Measuring firefly luciferase activity: 20 ul Dual-Glo Luciferase Reagent was added to the 384-well plates. The plates were protected from light to prevent interference with the assay. The plates were shaken for 1 min followed centrifuging plates at 1000 rpm for 30 seconds. After waiting at least 10 minutes, the firefly luminescence was measured by Envision.
# Measuring renilla luciferase activity: 20 ul Stop-Glo Reagent was added to the 384-well plates. The plates were shaken for 1 min and then centrifuged at 1000 rpm for 30 seconds. After waiting at least 10 minutes, the renilla luminescence was measured by Envision.
# Compound IC50 and maximum inhibition on the firefly luciferase and renilla luciferase activities were reported separately.
row,SMILES,pIC50
1,"CC1(c2nnc(-c3cccnc3Nc3ccc(C(F)(F)F)cc3)o2)OCCNC1=O (stereo not drawn) [Compound 37, 2-methyl-2-(5-(2-((4-(trifluoromethyl)phenyl)amino)pyridin-3-yl)-1,3,4-oxadiazol-2-yl)morpholin-3-one]",≥ 7.00
2,"CC1(c2nnc(-c3cccnc3Nc3ccc(C(F)(F)F)cc3)o2)CC(N)=NC1=O (stereo not drawn) [Compound 38, 2-amino-4-methyl-4-[5-[2-[4-(trifluoromethyl)anilino]-3-pyridyl]-1,3,4-oxadiazol-2-yl]-3H-pyrrol-5-one]",≥ 7.00
3,"C[C@@]1(c2nnc(-c3cccnc3Nc3ccc(C(F)(F)F)cc3)o2)CCCNC1=O [Compound 39, (S)-3-methyl-3-(5-(2-((4-(trifluoromethyl)phenyl)amino)pyridin-3-yl)-1,3,4-oxadiazol-2-yl)piperidin-2-one]",≥ 7.00
4,"C[C@]1(c2nnc(-c3cccnc3Nc3ccc(C(F)(F)F)cc3)o2)CCCNC1=O [Compound 40, (R)-3-methyl-3-(5-(2-((4-(trifluoromethyl)phenyl)amino)pyridin-3-yl)-1,3,4-oxadiazol-2-yl)piperidin-2-one]",6.00 to 7.00
5,"C[C@]1(n2nnc(-c3cccnc3Nc3ccc(C(F)(F)F)cc3)n2)CCNC1=O [Compound 42, (3S)-3-methyl-3-[5-[2-[4-(trifluoromethyl)anilino]-3-pyridyl]tetrazol-2-yl]pyrrolidin-2-one]",≥ 7.00
6,"C[C@@]1(n2nnc(-c3cccnc3Nc3ccc(C(F)(F)F)cc3)n2)CCNC1=O [Compound 43, (3R)-3-methyl-3-[5-[2-[4-(trifluoromethyl)anilino]-3-pyridyl]tetrazol-2-yl]pyrrolidin-2-one]",≥ 7.00
7,"CCN(C#N)Cc1nnc(-c2nccnc2Nc2ccc(C(F)(F)F)cc2)o1 [Compound 44, ethyl-[[5-[3-[4-(trifluoromethyl)anilino]pyrazin-2-yl]-1,3,4-oxadiazol-2-yl]methyl]cyanamide]",≥ 7.00
8,"CN(C#N)Cc1nnc(-c2nccnc2Nc2ccc(C(F)(F)F)cc2)o1 [Compound 45, methyl-[[5-[3-[4-(trifluoromethyl)anilino]pyrazin-2-yl]-1,3,4-oxadiazol-2-yl]methyl]cyanamide]",≥ 7.00
9,"CNCc1nnc(-c2nccnc2Nc2ccc(C(F)(F)F)cc2)o1 [Compound 48, 3-[5-(methylaminomethyl)-1,3,4-oxadiazol-2-yl]-N-[4-(trifluoromethyl)phenyl]pyrazin-2-amine]",5.52 to 6.00
